Measurements: patent US20220112470A1, “SYSTEMS AND METHODS FOR METABOLIC ENGINEERING” (THE TRUSTEES OF COLUMBIA UNIVERSITY IN THE CITY OF NEW YORK, priority 2019, published 2022)

Assays:
LexA-TetR fusion protein = target: T1, LexA-TetR fusion protein (Escherichia coli, UniProt P04483); test: Y3H LacZ assay for tetracyclines; type: cell-based, Saccharomyces cerevisiae
T1 construct: expressed in transfected cells; host or cells: Saccharomyces cerevisiae: FY250-derived PBA-8 (LacZ), LW2635-derived PBA-14 (URA3 growth), FY250-derived HL-2-4-1 (mCherry); the other entry of the earlier key: lexA (P0A7C2, LexA repressor)
Method: Protocol for Y3H LacZ Assay. […] Pelleting and resuspension were repeated once more. […] The assay plate was placed in the shaker overnight. OD measurements were then taken after 24 h, and the cells ere pelleted and resuspended in 100 μL of Z-buffer (60 mM Na2HPO4, 40 mM NaH2PO4, 10 mM KCl, 2 mM MgSO4, pH adjusted to 7, 2.7 mL/L of β-mercaptoethanol added fresh the day of the assay). The cells were pelleted again, resuspended in 100 μL of Y-PER buffer (Fisher Scientific, no. 78990), and lysed for 30 min at rt before the addition of o-nitrophenyl β-Dgalactopyranoside (ONPG) in Z-buffer (8.5 μL, 10 mg/mL). After 90 min, a Na2CO3 solution (1 M, 110 μL) was added to quench the reaction. After pelleting at 3000 rpm, 175 μL of the supernatant was transferred into flat clear-bottom 96-well plates (Corning no. 353072), and OD420 was measured. The limit of detection was calculated as the concentration of molecule at which the signal-to-noise ratio of the assay was >3:1.^32,33

[1] = relative to tetracycline, literature (ref. 55); cited from earlier work
TetR [2] = target: T2, TetR (Escherichia coli, UniProt P04483); conditions: literature (ref. 37); cited from earlier work
TetR [3] = target: T2, TetR; conditions: literature (ref. 37); cited from earlier work; remark: listed apart in the source
[4] = tested on: LexA-TetR fusion proteins of TetR classes A, B, C, D, E, G and H; test: Y3H LacZ assay with varying TetR classes; type: cell-based, Saccharomyces cerevisiae; conditions: FIG. 2B
Method: Y3H Strain Construction. LexA-TetR Plasmids. Plasmids PBA-Gib5 and HL-249-1 through HL-249-6 encoding LexA-TetR protein fusions for the various TetR classes were cloned by Gibson Assembly of the appropriate TetR sequence with pMW103 digested with restriction enzymes BamHI-HF and EcoRI-HF (Table 3). All TetR sequences with the exception of B) were obtained as IDT gBlocks. TetR(B) sequence was amplified from pET21d-TetR, courtesy of A. Davidson.^25,26
LacZ Assay Strain Construction. V506 was grown overnight in UT-media.^27 The culture was then diluted […] with UT- and plated on UT-plates. Single colonies were streaked on HTU- and UT-plates and a streak growing on UT- but not on HTU-, indicating the loss of the pMW3-(GSG)2rGR2 plasmid, was glycerol stocked as PBA5. This strain was further used for the transformation of the LexA-TetR plasmids to generate LacZ assay strains PBA8 and HL-260-1 through HL-260-7.
Protocol for Y3H LacZ Assay. […] Pelleting and resuspension were repeated once more. […] The assay plate was placed in the shaker overnight. […] After pelleting at 3000 rpm, 175 μL of the supernatant was transferred into flat clear-bottom 96-well plates (Corning no. 353072), and OD420 was measured. The limit of detection was calculated as the concentration of molecule at which the signal-to-noise ratio of the assay was >3:1.^32,33

[5] = target: LexA-TetR(B) fusion protein (Escherichia coli, UniProt P04483); conditions: purified TAN-1612 0.5 μM in assay well, 10 μM CID, FIG. 4B
Method: Protocol for Fluorescent Protein Y3H Assay. Fresh patches of Y3H strain HL-2-4-1 were inoculated into HTU-media (1 mL) in 24-well plates (flat, clear bottom, Corning no. 3526) and placed in the shaker. After 24 h, the cells were pelleted by centrifugation at 3250 rpm and resuspended in H2O (1 mL). Pelleting and resuspension were repeated once more. OD600 was measured by diluting 10× into H2O, and the cells were diluted accordingly into H2O for OD600=1 to be used as a 10× solution. A total of 20 μL of cells of OD600=1 were added to the assay plate as the last component in the assay plate (flat, clear bottom, black 96-well plate, Corning no. 3603). […] Starting conditions in the assay plate were OD600=0.1, 2% galactose, 2% raffinose, 0% glucose, 1×HTU-, 10 μM CID, 2% DMSO. The assay plate was placed in the 30° C. shaker overnight before measuring OD600 and 620 nm fluorescence (λex=588 nm).^31
Overnight cultures were used to inoculate 100 mL of YPD in 500 mL conical flasks with a starting OD600 of 0.08. After 68 h, 1 mL of culture was pelleted in 1.5 mL Eppendorf tubes at 14 000 rpm, sterile filtered, and diluted 20× into H2O to be used as a 10× stock solution.
The plate was covered with two layers of SealMate film (Excel Scientific, SM-KIT-BS) and placed in a shaker overnight. […]

## 9-NH2-minocycline
LexA-TetR fusion protein; LacZ reporter, competition with Min-Mtx CID, FIG. 2C
  concentrations differentiated by the Y3H system (range): 0.2 to 20 µM
[1]
  acid stability: high acid stability relative to tetracycline

## Cc1c2c(c(O)c3c(O)cccc13)C(=O)C1(O)C(=O)C(C(N)=O)=C(O)CC1C2 (centres unmarked) [4-de(dimethylamino)-anhydrotetracycline]
TetR [2]
  binding to TetR: possible to detect binding
TetR [3]
  induction in TetR-TetO-based assay: no induction was detected

## CN(C)c1cc(NC(=O)CNC(=O)CC[C@H](NC(=O)c2ccc(N(C)Cc3ccc4nc(N)nc(N)c4c3)cc2)C(=O)O)c(O)c2c1C[C@H]1C[C@H]3C(N(C)C)C(O)=C(C(N)=O)C(=O)[C@@]3(O)C(O)=C1C2=O (some centres unmarked) [Min-Mtx CID]
LexA-TetR fusion protein; varying concentrations of Min-Mtx CID, FIG. 2A
  reporter gene output dependence on CID: dependent upon the presence of the CID
[4]; TetR(B) and TetR(G)
  response to the CID, best TetR classes: showed the best response to the CID
[4]; all TetR classes tested as protein receptors
  responsiveness of the Y3H system to the CID: responsive to the CID with all known TetR classes except for the TetR(C) variant used

## COc1cc(O)c2c(O)c3c(cc2c1)CC1(O)CC(=O)C(C(C)=O)=C(O)C1(O)C3=O (centres unmarked) [TAN-1612]
[5]
  Y3H signal (mCherry) of purified compound spiked into nonproducer supernatants: resembles the signal obtained with producer supernatant
